In paper PMC6261253 (Nature, 2018):

Tests used:
[1] = target: T1, DHX36-AAA (Bos taurus, UniProt Q05B79, K192A/K193A/K194A); test: single-molecule FRET, helicase dissociation from G-quadruplex DNA; type: biochemical; conditions: ATP added to DHX36-AAA bound to c-Myc G-quadruplex DNA with 3' T9 tail
T1 sequence (Q05B79 55-1010 K192A/K193A/K194A): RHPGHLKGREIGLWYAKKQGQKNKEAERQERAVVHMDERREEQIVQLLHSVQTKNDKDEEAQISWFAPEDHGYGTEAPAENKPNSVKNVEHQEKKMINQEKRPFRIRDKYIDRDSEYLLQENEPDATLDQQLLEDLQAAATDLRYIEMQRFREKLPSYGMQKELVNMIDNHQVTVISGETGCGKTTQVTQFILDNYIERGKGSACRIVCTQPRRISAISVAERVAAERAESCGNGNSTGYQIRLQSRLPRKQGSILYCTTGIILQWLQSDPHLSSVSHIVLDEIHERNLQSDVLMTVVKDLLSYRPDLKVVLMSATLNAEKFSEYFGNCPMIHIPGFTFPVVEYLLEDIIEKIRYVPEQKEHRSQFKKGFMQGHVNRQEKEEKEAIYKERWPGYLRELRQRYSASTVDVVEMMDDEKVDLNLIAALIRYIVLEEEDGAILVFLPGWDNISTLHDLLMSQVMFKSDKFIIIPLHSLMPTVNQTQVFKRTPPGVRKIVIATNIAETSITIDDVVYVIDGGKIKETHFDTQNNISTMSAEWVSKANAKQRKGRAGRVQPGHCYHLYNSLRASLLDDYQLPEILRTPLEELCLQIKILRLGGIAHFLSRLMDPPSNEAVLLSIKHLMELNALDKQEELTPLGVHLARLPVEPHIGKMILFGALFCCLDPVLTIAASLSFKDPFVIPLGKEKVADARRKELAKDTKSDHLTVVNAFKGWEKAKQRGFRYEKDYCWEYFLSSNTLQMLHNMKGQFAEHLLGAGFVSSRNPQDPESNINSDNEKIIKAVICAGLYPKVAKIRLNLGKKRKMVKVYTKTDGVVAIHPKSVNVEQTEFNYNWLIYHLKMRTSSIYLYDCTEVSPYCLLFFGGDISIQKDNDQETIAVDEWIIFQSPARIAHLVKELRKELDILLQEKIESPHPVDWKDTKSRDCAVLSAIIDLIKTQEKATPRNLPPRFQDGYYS

[2] = target: T2, DHX36-DSM (crystallization construct) (Bos taurus, UniProt Q05B79 55-1010, E435Y;E436Y;K437Y;K752A;D753A;K755A;del1-54;del111-159); test: X-ray crystallography
T2 sequence: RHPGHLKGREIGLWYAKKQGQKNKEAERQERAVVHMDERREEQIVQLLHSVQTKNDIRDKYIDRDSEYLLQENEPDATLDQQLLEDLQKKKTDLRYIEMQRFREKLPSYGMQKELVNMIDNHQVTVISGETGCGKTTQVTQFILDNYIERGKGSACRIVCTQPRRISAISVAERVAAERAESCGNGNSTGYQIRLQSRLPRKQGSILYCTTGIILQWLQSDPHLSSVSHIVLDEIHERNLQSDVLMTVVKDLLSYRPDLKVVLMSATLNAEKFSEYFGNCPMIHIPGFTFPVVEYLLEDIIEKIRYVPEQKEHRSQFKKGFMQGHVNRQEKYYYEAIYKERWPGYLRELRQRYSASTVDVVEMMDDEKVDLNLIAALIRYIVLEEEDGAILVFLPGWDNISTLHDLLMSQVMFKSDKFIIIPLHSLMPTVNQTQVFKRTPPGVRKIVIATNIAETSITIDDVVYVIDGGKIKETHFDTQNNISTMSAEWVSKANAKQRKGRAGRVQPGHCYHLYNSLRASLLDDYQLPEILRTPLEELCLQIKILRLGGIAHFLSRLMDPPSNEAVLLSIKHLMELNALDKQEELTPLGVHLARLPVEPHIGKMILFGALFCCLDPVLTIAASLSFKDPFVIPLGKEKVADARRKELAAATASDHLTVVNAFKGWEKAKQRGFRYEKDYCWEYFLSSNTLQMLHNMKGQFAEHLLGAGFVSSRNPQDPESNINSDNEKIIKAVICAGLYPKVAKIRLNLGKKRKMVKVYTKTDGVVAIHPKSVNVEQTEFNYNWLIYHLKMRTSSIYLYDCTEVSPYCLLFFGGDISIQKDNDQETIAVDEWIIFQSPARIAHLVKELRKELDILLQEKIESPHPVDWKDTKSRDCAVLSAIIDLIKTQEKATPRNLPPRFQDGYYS

Q: With `Nc1ncnc2c1ncn2[C@@H]1O[C@H](COP(=O)(O)OP(=O)(O)OP(=O)(O)O)[C@@H](O)[C@H]1O` [ATP] as the molecule, how does the “single-molecule FRET, helicase dissociation from G-quadruplex DNA” value [1] read?
A: The value was “Addition of ATP (red arrow) while DHX36-AAA is displaying repetitive unfolding activity”.

Q: Does AGGGTGGGTAGGGTGGGTTTTTTT (structured_DNA) [DNAMyc] bind [2]?
A: Result: binds
